Results: PubChem BioAssay AID1259411 (Chemical Carcinogenesis Research Information System (CCRIS), 2018)
The source made the active and inactive calls. The rule behind the calls is not given here.

Tested on: rodent carcinogenicity bioassays, tumor incidence
Assay: CCRIS carcinogenicity studies
Summary of the method: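 Archive of carcinogenicity, mutagenicity, tumor promotion and tumor inhibition results drawn from journals, NCI reports and other sources, expert-reviewed; covers 1985-2011 and is no longer updated.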

Measured: carcinogen call

C1CO1
inactive: Species: RAT, Strain/Sex: F344/FEMALE, Route: INHALATION, Dose: 0, 10, 33, 100 PPM 6 HR/D 5 D/WK FOR UP TO 2 YR (STUDY DURATION: 24 MO), Dose: 0, 10, 33, 100 PPM 6 HR/D 5 D/WK FOR UP TO 2 YR (STUDY DURATION: 24 MO) inactive; negative
active: Species: MOUSE, Strain/Sex: B6C3F1/FEMALE, Route: INHALATION, Dose: 0, 50, 100 PPM 6 HR/D 5 D/WK FOR 102 WK (STUDY DURATION: 105 WK), Dose: 0, 50, 100 PPM 6 HR/D 5 D/WK FOR 102 WK (STUDY DURATION: 105 WK), Tumor Site: Type of Lesion: LUNG: ALVEOLAR/BRONCHIOLAR ADENOMA, LUNG: ALVEOLAR/BRONCHIOLAR CARCINOMA, LUNG: ALVEOLAR/BRONCHIOLAR ADENOMA OR CARCINOM, Tumor Site: Type of Lesion: LUNG: ALVEOLAR/BRONCHIOLAR ADENOMA, LUNG: ALVEOLAR/BRONCHIOLAR CARCINOMA, LUNG: ALVEOLAR/BRONCHIOLAR ADENOMA OR CARCINOM active; positive | Species: MOUSE, Strain/Sex: B6C3F1/MALE, Route: INHALATION, Dose: 0, 50, 100 PPM 6 HR/D 5 D/WK FOR 102 WK (STUDY DURATION: 105 WK), Dose: 0, 50, 100 PPM 6 HR/D 5 D/WK FOR 102 WK (STUDY DURATION: 105 WK), Tumor Site: Type of Lesion: LUNG: ALVEOLAR/BRONCHIOLAR CARCINOMA, LUNG: ALVEOLAR/BRONCHIOLAR ADENOMA OR CARCINOMA, HARDERIAN GLAND: PAPILLARY CYSTAD, Tumor Site: Type of Lesion: LUNG: ALVEOLAR/BRONCHIOLAR CARCINOMA, LUNG: ALVEOLAR/BRONCHIOLAR ADENOMA OR CARCINOMA, HARDERIAN GLAND: PAPILLARY CYSTAD active; positive | Species: MOUSE, Strain/Sex: NMRI/FEMALE, Route: SUBCUTANEOUS, Dose: 0, 0.1, 0.3, 1 MG/MOUSE IN TRICAPRYLIN 1/WK FOR 95 WK (STUDY DURATION: 110 WK), Dose: 0, 0.1, 0.3, 1 MG/MOUSE IN TRICAPRYLIN 1/WK FOR 95 WK (STUDY DURATION: 110 WK), Tumor Site: Type of Lesion: INJECTION SITE: TUMOR active; positive | Species: RAT, Strain/Sex: F344/FEMALE, Route: INHALATION, Dose: 0, 10, 33, 100 PPM 6 HR/D 5 D/WK FOR STUDY DURATION (STUDY DURATION: 2 YR), Dose: 0, 10, 33, 100 PPM 6 HR/D 5 D/WK FOR STUDY DURATION (STUDY DURATION: 2 YR), Tumor Site: Type of Lesion: BRAIN: ASTROCYTOMA, MIXED GLIOMA, OLIGODENDROGLIOMA, MALIGNANT RETICULOSIS active; positive | Species: RAT, Strain/Sex: F344/MALE, Route: INHALATION, Dose: 0, 10, 33, 100 PPM 6 HR/D 5 D/WK FOR STUDY DURATION (STUDY DURATION: 2 YR), Dose: 0, 10, 33, 100 PPM 6 HR/D 5 D/WK FOR STUDY DURATION (STUDY DURATION: 2 YR), Tumor Site: Type of Lesion: BRAIN: GRANULAR CELL TUMOR, ASTROCYTOMA, MIXED GLIOMA, OLIGODENDROGLIOMA, MALIGNANT RETICULOSIS active; positive | Species: RAT, Strain/Sex: F344/MALE, Route: INHALATION, Dose: 0, 10, 33, 100 PPM 6 HR/D 5 D/WK FOR UP TO 2 YR (STUDY DURATION: 24 MO), Dose: 0, 10, 33, 100 PPM 6 HR/D 5 D/WK FOR UP TO 2 YR (STUDY DURATION: 24 MO), Tumor Site: Type of Lesion: BRAIN: GRANULAR CELL TUMOR OR GLIAL CELL TUMOR OR ASTROCYTOMA OR MALIGNANT RETICULOSIS active; positive | Species: RAT, Strain/Sex: F344/MALE, Route: INHALATION, Dose: 0, 50, 100 PPM 7 HR/D 5 D/WK FOR 24 MO (STUDY DURATION: LIFETIME), Dose: 0, 50, 100 PPM 7 HR/D 5 D/WK FOR 24 MO (STUDY DURATION: LIFETIME), Tumor Site: Type of Lesion: HEMATOPOIETIC SYSTEM: MONONUCLEAR CELL LEUKEMIA, PERITONEUM: MESOTHELIOMA, BRAIN: GLIOMA, Tumor Site: Type of Lesion: HEMATOPOIETIC SYSTEM: MONONUCLEAR CELL LEUKEMIA, PERITONEUM: MESOTHELIOMA, BRAIN: GLIOMA active; positive | Species: RAT, Strain/Sex: F344/MALE, Route: INHALATION, Dose: 0, 50, 100 PPM 7 HR/D 5 D/WK FOR 104 WK (STUDY DURATION: 2 YR), Dose: 0, 50, 100 PPM 7 HR/D 5 D/WK FOR 104 WK (STUDY DURATION: 2 YR), Tumor Site: Type of Lesion: BRAIN: GLIOMA (MIXED CELL), PERITONEUM: MESOTHELIOMA, PITUITARY GLAND: ADENOMA, SPLEEN: MONONUCLEAR CELL LEUKEMIA, Tumor Site: Type of Lesion: BRAIN: GLIOMA (MIXED CELL), PERITONEUM: MESOTHELIOMA, PITUITARY GLAND: ADENOMA, SPLEEN: MONONUCLEAR CELL LEUKEMIA active; positive | Species: RAT, Strain/Sex: SPRAGUE-DAWLEY/FEMALE, Route: GAVAGE, Dose: 7.5, 30 MG/KG IN SALAD OIL 2/WK FOR UP TO 150 WK, Tumor Site: Type of Lesion: FORESTOMACH: SQUAMOUS CELL CARCINOMA active; positive

COC(=O)c1ccc(CNS(C)(=O)=O)cc1S(=O)(=O)NC(=O)Nc1nc(OC)cc(OC)n1
inactive: Species: Mouse, Strain/Sex: CD-1/Female (60/Group), Route: Oral, Dose: 0, 13.9, 129.8, 1356 mg/kg/day of 94.6-95.3% mesosulfuron-methyl in diet for 18 mo, study duration 18 mo, Dose: 0, 13.9, 129.8, 1356 mg/kg/day of 94.6-95.3% mesosulfuron-methyl in diet for 18 mo, study duration 18 mo inactive; negative | Species: Mouse, Strain/Sex: CD-1/Male (60/Group), Route: Oral, Dose: 0, 10.6, 102.8, 1069 mg/kg/day of 94.6-95.3% mesosulfuron-methyl in diet for 18 mo, study duration 18 mo, Dose: 0, 10.6, 102.8, 1069 mg/kg/day of 94.6-95.3% mesosulfuron-methyl in diet for 18 mo, study duration 18 mo inactive; negative | Species: Rat, Strain/Sex: Hoe:WISK(SPF71)/Female (50/Group), Route: Oral, Dose: 0, 9.39, 94.7, 952.3 mg/kg/day of 94.6% mesosulfuron-methyl in diet for 24 mo, study duration 24 mo, Dose: 0, 9.39, 94.7, 952.3 mg/kg/day of 94.6% mesosulfuron-methyl in diet for 24 mo, study duration 24 mo inactive; negative | Species: Rat, Strain/Sex: Hoe:WISK(SPF71)/Male (50/Group), Route: Oral, Dose: 0, 7.46, 73.8, 764.0 mg/kg/day of 94.6% mesosulfuron-methyl in diet for 24 mo, study duration 24 mo, Dose: 0, 7.46, 73.8, 764.0 mg/kg/day of 94.6% mesosulfuron-methyl in diet for 24 mo, study duration 24 mo inactive; negative

CCBr
equivocal: Species: MOUSE, Strain/Sex: B6C3F1/MALE, Route: INHALATION, Dose: 0, 100, 200, 400 PPM 6 HR/D 5 D/WK FOR 104 WK (STUDY DURATION: 106 WK), Dose: 0, 100, 200, 400 PPM 6 HR/D 5 D/WK FOR 104 WK (STUDY DURATION: 106 WK), Tumor Site: Type of Lesion: LUNG: ALVEOLAR/BRONCHIOLAR ADENOMA OR CARCINOMA | Species: RAT, Strain/Sex: F344/FEMALE, Route: INHALATION, Dose: 0, 100, 200, 400 PPM 6 HR/D 5 D/WK FOR 104 WK (STUDY DURATION: 106 WK), Dose: 0, 100, 200, 400 PPM 6 HR/D 5 D/WK FOR 104 WK (STUDY DURATION: 106 WK), Tumor Site: Type of Lesion: BRAIN: GLIOMA, LUNG: ALVEOLAR/BRONCHIOLAR ADENOMA
active: Species: MOUSE, Strain/Sex: B6C3F1/FEMALE, Route: INHALATION, Dose: 0, 100, 200, 400 PPM 6 HR/D 5 D/WK FOR 103 WK (STUDY DURATION: 105 WK), Dose: 0, 100, 200, 400 PPM 6 HR/D 5 D/WK FOR 103 WK (STUDY DURATION: 105 WK), Tumor Site: Type of Lesion: UTERUS: ADENOMA, ADENOCARCINOMA, ADENOMA OR ADENOCARCINOMA, ADENOCARCINOMA OR SQUAMOUS CELL CARCINOMA active; positive | Species: RAT, Strain/Sex: F344/MALE, Route: INHALATION, Dose: 0, 100, 200, 400 PPM 6 HR/D 5 D/WK FOR 104 WK (STUDY DURATION: 106 WK), Dose: 0, 100, 200, 400 PPM 6 HR/D 5 D/WK FOR 104 WK (STUDY DURATION: 106 WK), Tumor Site: Type of Lesion: ADRENAL MEDULLA: PHEOCHROMOCYTOMA, PHEOCHROMOCYTOMA OR MALIGNANT PHEOCHROMOCYTOMA active; positive
